# “And” between values parts separate entries of the source, which are not always exact repeats. Equal values may be shown once. Read-outs that look alike come from different tables or passages of the source.
# Assays:
# [1] = test system: C. glabrata strains (WT, pdr1∆ or PDR1 rescue); test: Growth assays to assess compound efflux; format: cell-based; settings: for growth relative to Solvent = 100 (Figure S10B): compound 50 µM; for growth relative to Solvent = 100 (Figure S10B) / growth (Figure S10A): three replicates
# Experimental: Cells from a single colony were diluted in 0.85% NaCl before being counted using a Neubauer chamber. […] The effect of fluconazole was tested by titration on these strains under similar conditions.
# [2] = test system: C. glabrata expressing humanized Bdf1 (Brd4 BDs); test: Growth inhibition in liquid media, humanized C. glabrata strains; settings: Fig 3E, 50 µM, Exp 1-3
# Experimental: (§1) Growth on Liquid Media with C. glabrata Lab Strains: Cells were grown at 30 °C in SC+M+C‐U medium (SC medium with 5 mM methionine, 0.25 mM cysteine, without uracil) to an OD600 of 0.5–0.8. […] Plates were incubated at 30 °C and OD600 was measured using a Multiskan FC Microplate Photometer (Thermo Fisher).
# [3] = test system: C. glabrata strains expressing WT and mutant Bdf1; test: Growth inhibition in liquid media, C. glabrata lab strains; settings: Exp 1-3; for %Growth: Fig 3E, 50 µM, WT BDF1-flag; for OD at 600 nm: Figure S9A
# Experimental: as §1
# CgBdf1 BD1 [4] = target: CgBdf1 BD1 (Candida glabrata, UniProt Q6FWV7); test: HTRF assay, inhibition of H4ac4 peptide binding; set-up: species or system C. glabrata; settings: for IC50: Table S4
# CgBdf1 BD1 (Candida glabrata, UniProt Q6FWV7), sequence (Q6FWV7 entry or part of it): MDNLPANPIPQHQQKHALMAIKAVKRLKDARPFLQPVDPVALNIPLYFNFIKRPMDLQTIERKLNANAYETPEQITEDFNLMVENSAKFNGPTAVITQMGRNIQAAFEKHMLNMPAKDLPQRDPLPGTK
# CgBdf1 BD2 [5] = test: Histone peptide array assay; settings: peptide array signal
# Experimental: (§2) The array was prepared as described in the manufacturer's instructions. […] The array was then washed three times with binding buffer. Anti‐GST antibody (GE Healthcare) was used for the detection of GST‐tagged bromodomains.
# CgBdf1 BD1 [6] = test: Histone peptide array assay; settings: peptide array signal
# Experimental: as §2
# human Brd4 BD1 = human Brd4 BD1 (Homo sapiens, UniProt O60885); test: HTRF assay, inhibition of H4ac4 peptide binding; settings: for %HTRF Signal: Exp1-3
# CgBdf1 BD2 [7] = target: CgBdf1 BD2 (Candida glabrata, UniProt Q6FWV7); test: biochemical; format: binding, C. glabrata
# CgBdf1 BD2 (Candida glabrata, UniProt Q6FWV7), sequence (Q6FWV7 entry or part of it): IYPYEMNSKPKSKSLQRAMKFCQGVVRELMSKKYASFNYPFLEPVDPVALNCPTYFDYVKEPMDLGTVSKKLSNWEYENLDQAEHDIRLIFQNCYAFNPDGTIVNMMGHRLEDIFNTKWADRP
# human Brd4 BD2 = target: T1, human Brd4 BD2 (Homo sapiens, UniProt O60885); test: HTRF assay, inhibition of H4ac4 peptide binding; settings: hBrd4 BD2; for %HTRF Signal: Exp1-3
# T1 construct: GST‐tagged BD2 (residues 349–460) from human Brd4 (UniProt ID O60885); purchased Reaction Biology Corp
# [8] = Fig 1D/2A original data, single experiments Exp1-3
smiles,measurement,setting,value
CCNC(=O)c1cc2c(-c3cc(C(C)(C)O)ccc3Oc3c(C)cc(F)cc3C)cn(C)c(=O)c2[nH]1 [ABBV744],growth relative to Solvent = 100 (Figure S10B),[1]; PDR1 Rescue,73.7317 and 83.5862 and 73.3043
same,growth relative to Solvent = 100 (Figure S10B),[1]; WT,66.394 and 67.598 and 72.0455
same,growth relative to Solvent = 100 (Figure S10B),[1]; pdr1∆,59.2642 and 64.761 and 73.9837
same,%Growth,[2]; BDF1-hBD1-flag,90% and 85% and 80%
same,%Growth,[2]; BDF1-hBD2-flag,38% and 32% and 37%
same,%Growth,[2]; humanized BDF1-flag,41% and 39%
same,%Growth,[3],90% and 89% and 91%
Cn1nccc1C(=O)NCc1ccc(-c2nc(-c3cccs3)no2)s1 [Compound 63],%HTRF Signal,CgBdf1 BD1 [4],92.96% and 94.93% and 114.99%
same,%HTRF Signal,"CgBdf1 BD1 [4]; CgBD1, compound 2.10 nM, Exp1-3",89.22% and 91.15% and 92.46%
same,%HTRF Signal,"CgBdf1 BD1 [4]; CgBD1, compound 13.11 nM, Exp1-3",137.24% and 96.18% and 98.59%
same,%HTRF Signal,"CgBdf1 BD1 [4]; CgBD1, compound 32.77 nM, Exp1-3",89.47% and 88.02% and 93.78%
same,%HTRF Signal,"CgBdf1 BD1 [4]; CgBD1, compound 81.92 nM, Exp1-3",87.12% and 79.28% and 89.90%
same,%HTRF Signal,"CgBdf1 BD1 [4]; CgBD1, compound 204.8 nM, Exp1-3",79.54% and 70.30% and 76.77%
same,%HTRF Signal,"CgBdf1 BD1 [4]; CgBD1, compound 512 nM, Exp1-3",60.42% and 54.51% and 55.50%
same,%HTRF Signal,"CgBdf1 BD1 [4]; CgBD1, compound 1280 nM, Exp1-3",88.32% and 78.12% and 81.58%
same,%HTRF Signal,"CgBdf1 BD1 [4]; CgBD1, compound 3200 nM, Exp1-3",43.73% and 36.43% and 36.08%
same,%HTRF Signal,"CgBdf1 BD1 [4]; CgBD1, compound 8000 nM, Exp1-3",32.25% and 38.09% and 29.97%
same,%HTRF Signal,"CgBdf1 BD1 [4]; CgBD1, compound 20000 nM, Exp1-3",23.85% and 25.61% and 19.76%
same,IC50,"CgBdf1 BD1 [4]; CgBD1, individual experiments Exp1-3, read-out: IC50",0.62 µM and 0.71 µM and 0.5 µM
same,pIC50 CgBD1,CgBdf1 BD1 [4]; [8],6.209 and 6.147 and 6.298
same,IC50,"CgBdf1 BD1 [4]; means ± SD, n=3, read-out: IC50 CgBD1",0.61 ± 0.1 µM
same,"Raw data, WT","CgBdf1 BD2 [5]; CgBdf1 BD2 WT, first replicate column",0.004055
same,"Normalized (0 to 100%), WT","CgBdf1 BD2 [5]; CgBdf1 BD2 WT, mean of the two raw values",0.593%
same,"Raw data, WT","CgBdf1 BD2 [5]; CgBdf1 BD2 WT, second replicate column",0.007798
same,"Raw data, YF mutant","CgBdf1 BD2 [5]; CgBdf1 BD2 YF mutant, first replicate column",0.009509
same,"Normalized (0 to 100%), YF mutant","CgBdf1 BD2 [5]; CgBdf1 BD2 YF mutant, mean of the two raw values",0.675%
same,"Raw data, YF mutant","CgBdf1 BD2 [5]; CgBdf1 BD2 YF mutant, second replicate column",0.003988
same,"Raw data, WT","CgBdf1 BD1 [6]; CgBdf1 BD1 WT, first replicate column",0.003151
same,"Normalized (0 to 100%), WT","CgBdf1 BD1 [6]; CgBdf1 BD1 WT, mean of the two raw values",1.81%
same,"Raw data, WT","CgBdf1 BD1 [6]; CgBdf1 BD1 WT, second replicate column",0.03308
same,"Raw data, YF mutant","CgBdf1 BD1 [6]; CgBdf1 BD1 YF mutant, first replicate column",0.001234
same,"Normalized (0 to 100%), YF mutant","CgBdf1 BD1 [6]; CgBdf1 BD1 YF mutant, mean of the two raw values",0.216%
same,"Raw data, YF mutant","CgBdf1 BD1 [6]; CgBdf1 BD1 YF mutant, second replicate column",0.003085
same,pIC50 hBrd4 BD1,human Brd4 BD1; [8],4.548 and 4.767 and 4.490
same,IC50,"human Brd4 BD1; Table S3, estimate, preliminary single-replicate HTRF assay, read-out: IC50 Brd4 BD1",> 20 µM
same,IC50,"human Brd4 BD1; Table S4, means ± SD, n=3, read-out: IC50 hBrd4 BD1",25.9 ± 7.9 µM
same,%HTRF Signal,"human Brd4 BD1; hBrd4 BD1, compound 2.10 nM",98.36% and 97.75% and 98.52%
same,%HTRF Signal,"human Brd4 BD1; hBrd4 BD1, compound 5.24 nM",96.44% and 101.52% and 99.57%
same,%HTRF Signal,"human Brd4 BD1; hBrd4 BD1, compound 13.11 nM",96.19% and 93.70% and 100.56%
same,%HTRF Signal,"human Brd4 BD1; hBrd4 BD1, compound 32.77 nM",100.99% and 95.89% and 96.28%
same,%HTRF Signal,"human Brd4 BD1; hBrd4 BD1, compound 81.92 nM",95.84% and 103.64% and 102.41%
same,%HTRF Signal,"human Brd4 BD1; hBrd4 BD1, compound 204.8 nM",99.83% and 98.50% and 97.67%
same,%HTRF Signal,"human Brd4 BD1; hBrd4 BD1, compound 512 nM",96.60% and 93.56% and 96.36%
same,%HTRF Signal,"human Brd4 BD1; hBrd4 BD1, compound 1280 nM",82.33% and 98.72% and 104.43%
same,%HTRF Signal,"human Brd4 BD1; hBrd4 BD1, compound 3200 nM",94.57% and 92.75% and 93.44%
same,%HTRF Signal,"human Brd4 BD1; hBrd4 BD1, compound 8000 nM",83.80% and 81.87% and 89.53%
same,%HTRF Signal,"human Brd4 BD1; hBrd4 BD1, compound 20000 nM",44.73% and 68.85% and 53.13%
same,IC50,"human Brd4 BD1; hBrd4 BD1, individual experiments Exp1-3, Table S4, read-out: IC50",17.1 µM and 32.4 µM and 28.3 µM
same,%HTRF Signal,CgBdf1 BD2 [7],91.88% and 95.70% and 106.64%
same,pIC50 CgBD2,CgBdf1 BD2 [7],≤ 4
same,%HTRF Signal,"CgBdf1 BD2 [7]; CgBD2, compound 2.10 nM, Exp1-3",86.71% and 109.56% and 96.63%
same,%HTRF Signal,"CgBdf1 BD2 [7]; CgBD2, compound 13.11 nM, Exp1-3",107.12% and 98.52% and 93.70%
same,%HTRF Signal,"CgBdf1 BD2 [7]; CgBD2, compound 32.77 nM, Exp1-3",87.98% and 111.39% and 100.52%
same,%HTRF Signal,"CgBdf1 BD2 [7]; CgBD2, compound 81.92 nM, Exp1-3",93.69% and 107.27% and 99.37%
same,%HTRF Signal,"CgBdf1 BD2 [7]; CgBD2, compound 204.8 nM, Exp1-3",87.47% and 98.47% and 101.59%
same,%HTRF Signal,"CgBdf1 BD2 [7]; CgBD2, compound 512 nM, Exp1-3",94.84% and 95.89% and 102.41%
same,%HTRF Signal,"CgBdf1 BD2 [7]; CgBD2, compound 1280 nM, Exp1-3",108.51% and 97.41% and 103.91%
same,%HTRF Signal,"CgBdf1 BD2 [7]; CgBD2, compound 3200 nM, Exp1-3",96.71% and 89.90% and 106.57%
same,%HTRF Signal,"CgBdf1 BD2 [7]; CgBD2, compound 8000 nM, Exp1-3",101.27% and 103.49% and 103.29%
same,%HTRF Signal,"CgBdf1 BD2 [7]; CgBD2, compound 20000 nM, Exp1-3",98.71% and 85.34% and 94.42%
same,IC50,"CgBdf1 BD2 [7]; CgBD2, individual experiments Exp1-3, Table S4, read-out: IC50",> 20 µM
same,%HTRF Signal,human Brd4 BD2; compound 2.10 nM,99.18% and 94.17% and 90.64%
same,%HTRF Signal,human Brd4 BD2; compound 5.24 nM,99.39% and 99.07% and 97.43%
same,%HTRF Signal,human Brd4 BD2; compound 13.11 nM,98.29% and 101.48% and 93.41%
same,%HTRF Signal,human Brd4 BD2; compound 32.77 nM,93.01% and 99.51% and 101.32%
same,%HTRF Signal,human Brd4 BD2; compound 81.92 nM,102.00% and 98.93% and 106.04%
same,%HTRF Signal,human Brd4 BD2; compound 204.8 nM,100.03% and 105.21% and 104.21%
same,%HTRF Signal,human Brd4 BD2; compound 512 nM,98.01% and 98.41% and 97.72%
same,%HTRF Signal,human Brd4 BD2; compound 1280 nM,99.07% and 96.81% and 100.81%
same,%HTRF Signal,human Brd4 BD2; compound 3200 nM,102.84% and 98.87% and 104.55%
same,%HTRF Signal,human Brd4 BD2; compound 8000 nM,108.22% and 84.57% and 107.59%
same,%HTRF Signal,human Brd4 BD2; compound 20000 nM,102.02% and 76.14% and 105.57%
same,IC50,"human Brd4 BD2; individual experiments Exp1-3, Table S4, read-out: IC50",> 20 µM (2×) and 29.2 µM
same,OD at 600 nm,[3]; WT BDF1 strain,0.4973 and 0.4763 and 0.4793
same,OD at 600 nm,[3]; bdf1-bd1Δ strain,0.2357 and 0.2187 and 0.2437
same,OD at 600 nm,[3]; bdf1-bd2Δ strain,0.1390 and 0.1480 and 0.1420
COc1cc(OC)c2c(=O)[nH]c(-c3cc(C)c(OCCO)c(C)c3)nc2c1 [RVX208],growth relative to Solvent = 100 (Figure S10B),[1]; PDR1 Rescue,70.1855 and 71.3614 and 82.784
same,growth relative to Solvent = 100 (Figure S10B),[1]; WT,80.2726 and 64.9447 and 62.8512
same,growth relative to Solvent = 100 (Figure S10B),[1]; pdr1∆,66.409 and 64.9859 and 67.3918
same,%Growth,[2]; BDF1-hBD1-flag,95% and 91% and 88%
same,%Growth,[2]; BDF1-hBD2-flag,94% and 82% and 93%
same,%Growth,[2]; humanized BDF1-flag,80% and 88% and 77%
same,%Growth,[3],91% and 96%
OC(Cn1cncn1)(Cn1cncn1)c1ccc(F)cc1F [fluconazole],growth (Figure S10A),"[1]; Cg101 pdr1Δ mut, Fluconazole 0.5 µg/mL",21% and 19% and 15%
same,growth (Figure S10A),"[1]; Cg101 pdr1Δ mut, Fluconazole 1 µg/mL",12% and 11% and 6%
same,growth (Figure S10A),"[1]; Cg101 pdr1Δ mut, Fluconazole 2 µg/mL",6% (2×) and 2%
same,growth (Figure S10A),"[1]; Cg101 pdr1Δ mut, Fluconazole 4 µg/mL",6% and 3% and 2%
same,growth (Figure S10A),"[1]; Cg102 pdr1 rescue, Fluconazole 0.5 µg/mL",55% and 61% and 53%
same,growth (Figure S10A),"[1]; Cg102 pdr1 rescue, Fluconazole 1 µg/mL",36% and 35% and 25%
same,growth (Figure S10A),"[1]; Cg102 pdr1 rescue, Fluconazole 2 µg/mL",14% and 19% and 18%
same,growth (Figure S10A),"[1]; Cg102 pdr1 rescue, Fluconazole 4 µg/mL",5% and 9% and 6%
same,growth (Figure S10A),"[1]; Cg103 PDR1 WT, Fluconazole 0.5 µg/mL",57% and 60% and 48%
same,growth (Figure S10A),"[1]; Cg103 PDR1 WT, Fluconazole 1 µg/mL",24% (2×) and 33%
same,growth (Figure S10A),"[1]; Cg103 PDR1 WT, Fluconazole 2 µg/mL",13% and 12% and 14%
same,growth (Figure S10A),"[1]; Cg103 PDR1 WT, Fluconazole 4 µg/mL",6% and 5% (2×)
same,sensitivity upon deletion of PDR1,"[1]; titration, pdr1Δ versus WT and rescue strains",enhanced
